The values that follow come from US20080176828A1, “Treating melanoma with BIS(THIOHYDRAZIDE AMIDES)” (priority 2006, published 2008).

One test has as its system melanoma. The note with it: currently used melanoma treatments, cited from earlier work.
For test [1], the system named is Stage IV metastatic melanoma.
Description: Example 1, weekly treatment regimen of compound (1) and paclitaxel combined in Stage IV metastatic melanoma patients in comparison with paclitaxel alone, based on time to progression
The dosages administered were 213 mg/m^2 compound (1), 80 mg/m^2 paclitaxel, and the dosage regimen was 3 weekly doses per each 4 week cycle. Patients were treated until progression of the disease. […] The tumor assessments were performed at baseline, Cycle 2, and every other Cycle thereafter.
[2] abbreviates: Kaplan-Meier estimate, efficacy sample, Stage IV melanoma patients, 3 weekly doses per 4 week cycle.
[3] abbreviates: RECIST, efficacy sample, number of patients (% of group).
The mark [4] stands for this setting: own trial arms as listed in Tables 3 and 4.

Several values for one entry are separate records, joined by “and”; a condition that tells them apart may be missing. Identical values can stand only once. Like-named read-outs stand apart in the source and are kept apart here.

`CCOP(=O)(OCC)C(C)NC(=O)N(CCCl)N=O` (stereo not shown) [Fotemustine]: in the test on melanoma, the OR was 15.2%, the Survival is recorded as 7.3 months and the TTP is recorded as 55 days.

On to `CNC(=O)c1cc(Oc2ccc(NC(=O)Nc3ccc(Cl)c(C(F)(F)F)c3)cc2)ccn1` [Sorafenib], for which the PR in the test on melanoma is 2.6%.

As for `CC(=O)O[C@H]1C(=O)[C@@]2(C)[C@H]([C@H](OC(=O)c3ccccc3)[C@]3(O)C[C@H](OC(=O)[C@H](O)[C@@H](NC(=O)c4ccccc4)c4ccccc4)C(C)=C1C3(C)C)[C@]1(OC(C)=O)CO[C@@H]1C[C@@H]2O` [Paclitaxel], in test [1] (setting [2]), the “Time to Progression, 75th percentile (95% CI)” value is 106.0 (61.0, 218.0) days and the “Time to Progression, Median (95% CI)” value is listed as 56.0 (49.0, 105.0) days. For the same compound, in test [1] (setting [3]), the “Best Overall Response: Complete Response (CR)” value is 0, the “Best Overall Response: Partial Response (PR)” value is on record as 1 (3.7%) and the “Best Overall Response: Progressive Disease (PD)” value was 16 (59.3%). Also, the “CR + PR (95% CI)” value in test [1] (RECIST, efficacy sample, two-sided Fisher's exact test p-value 0.149) is 3.7% (0.1%, 19.0%). Moreover, in test [1] (Table 2), the “patients with stable disease” value is on record as 37%. In test [1] (setting [4]), this compound yielded a CR of 0%, an OR of 3.7%, a PR of 3.7% and a TTP of 57 days. The OR in the test with melanoma (listed as Paclitaxel (Taxol)) is 12% and 17.8%.

As to `CC/C(=C(\c1ccccc1)c1ccc(OCCN(C)C)cc1)c1ccccc1` [Tamoxifen], in the test on melanoma, the CR is recorded as 1%, the OR is recorded as 4.9% and the PR was 3.9%.
